Data taken from patent publication US20070128217A1 (priority 2003, published 2007).

Legend:
[1] = tested on: antibodies in sera from SARS patients (sera 1a, 1b, 2, 6, 37, 62, London, SARS-yellow, SARS-green); assay type: binding, human; parameters: Binding of serum 6 to linear peptides of protein X1 of SARS-CoV Urbani / Binding of serum 37 to linear peptides of protein X1 of SARS-CoV Urbani / Binding of serum 6 to looped/cyclic peptide (PEPSCAN-ELISA) / Binding of serum 37 to looped/cyclic peptide (PEPSCAN-ELISA) / Binding of serum 37 to looped/cyclic peptides of protein X1 of SARS-CoV Urbani / Binding of serum 6 to linear peptides of protein X2 / Binding of serum 37 to linear peptides of protein X2 / Binding of serum 37 to looped/cyclic peptides of protein X2 of SARS-CoV Urbani / Binding of serum 6 to linear peptides of protein M of SARS-CoV Urbani / Binding of serum 37 to linear peptides of protein M of SARS-CoV Urbani / Binding of serum 6 to looped/cyclic peptides of protein M of SARS-CoV Urbani / Binding of serum 37 to looped/cyclic peptides of protein M of SARS-CoV Urbani / Binding of serum 6 to linear peptides of protein X3 of SARS-CoV Urbani / Binding of serum 37 to linear peptides of protein X3 of SARS-CoV Urbani / Binding of serum 37 to looped/cyclic peptides of protein X3 of SARS-CoV Urbani / Binding of serum 6 to linear peptides of protein X4 of SARS-CoV Urbani / Binding of serum 37 to linear peptides of protein X4 of SARS-CoV Urbani / Binding of serum 37 to looped/cyclic peptides of protein X4 of SARS-CoV Urbani / Binding of serum 6 to linear peptides of protein X5 of SARS-CoV Urbani / Binding of serum 37 to linear peptides of protein X5 of SARS-CoV Urbani / Binding of serum 37 to looped/cyclic peptides of protein X5 of SARS-CoV Urbani / Binding of serum 6 to linear peptides of protein N of SARS-CoV Urbani / Binding of serum 37 to linear peptides of protein N of SARS-CoV Urbani / Binding of serum 6 to linear peptide (PEPSCAN-ELISA) / Binding of serum 1a to looped/cyclic peptides of protein N of SARS-CoV Urbani / Binding of serum 1b to looped/cyclic peptides of protein N of SARS-CoV Urbani / Binding of serum 2 to looped/cyclic peptides of protein N of SARS-CoV Urbani / Binding of serum 6 to looped/cyclic peptides of protein N of SARS-CoV Urbani / Binding of serum 37 to looped/cyclic peptides of protein N of SARS-CoV Urbani / Binding of serum 62 to looped/cyclic peptides of protein N of SARS-CoV Urbani / Binding of serum London to looped/cyclic peptides of protein N of SARS-CoV Urbani / Binding of serum SARS-green to looped/cyclic peptides of protein N of SARS-CoV Urbani: unit not given here
[2] = tested on: rabbit serum obtained by immunizing a rabbit with the SARS-CoV strain Frankfurt 1; assay type: binding; parameters: Binding of a rabbit serum to linear peptides / Binding of a rabbit serum to looped peptides / Rabbit serum linear peptides / Rabbit serum looped peptides / Binding of a rabbit serum to linear peptides of protein N of SARS-CoV Urbani (Rabbit serum linear peptides) / Binding of a rabbit serum to looped/cyclic peptides of protein N of SARS-CoV Urbani (Rabbit serum looped peptides): unit not given here
[3] = tested on: recombinant human anti-SARS-CoV antibody 03-018; assay type: binding; parameters: Binding of antibody 03-018 to linear peptides of the N protein of SARS-CoV Urbani / Binding of antibody 03-018 to looped/cyclic peptides of the N protein of SARS-CoV Urbani: unit not given here
[4] = tested on: control sera (pooled serum of ten healthy LUMC hospital workers; commercial negative donor pooled serum from the Dutch bloodbank); assay type: binding, human; parameters: Binding of Control serum LUMC to linear peptides / Binding of Control serum Blood-bank to linear peptides / Binding of Control serum LUMC to looped peptides / Binding of Control Serum Blood-Bank to Looped peptides / Binding of Control serum LUMC to linear peptides of the protein M of SARS-CoV Urbani / Binding of Control serum Blood-bank to linear peptides of the protein M of SARS-CoV Urbani / Binding of Control serum LUMC to looped peptides of the protein M of SARS-CoV Urbani / Binding of Control Serum Blood-Bank to Looped peptides of the protein M of SARS-CoV Urbani: unit not given here

NKEGIVWVATEGALN
Binding of serum 1a to linear peptides of protein N of SARS-CoV Urbani [1]: 0.3 | Binding of serum 1a to looped/cyclic peptides of protein N of SARS-CoV Urbani [1]: 0.3 | Binding of serum 1b to linear peptides of protein N of SARS-CoV Urbani [1]: 0.1 | Binding of serum 1b to looped/cyclic peptides of protein N of SARS-CoV Urbani [1]: 0.2 | Binding of serum 2 to linear peptides of protein N of SARS-CoV Urbani [1]: 0.2 | Binding of serum 2 to looped/cyclic peptides of protein N of SARS-CoV Urbani [1]: 0.4 | Binding of serum 6 to linear peptides of protein N of SARS-CoV Urbani [1]: 0.2 | Binding of serum 6 to looped/cyclic peptides of protein N of SARS-CoV Urbani [1]: 0.2 | Binding of serum 37 to linear peptides of protein N of SARS-CoV Urbani [1]: 0.7 | Binding of serum 37 to looped/cyclic peptides of protein N of SARS-CoV Urbani [1]: 0.6 | Binding of serum 62 to linear peptides of protein N of SARS-CoV Urbani [1]: 0.6 | Binding of serum 62 to looped/cyclic peptides of protein N of SARS-CoV Urbani [1]: 0.4 | Binding of serum London to linear peptides of protein N of SARS-CoV Urbani [1]: 0.4 | Binding of serum London to looped/cyclic peptides of protein N of SARS-CoV Urbani [1]: 0.3 | Binding of serum SARS-green to linear peptides of protein N of SARS-CoV Urbani [1]: 0.4 | Binding of serum SARS-green to looped/cyclic peptides of protein N of SARS-CoV Urbani [1]: 0.3 | Binding of serum SARS-yellow to linear peptides of protein N of SARS-CoV Urbani [1]: 0.9 | Binding of serum SARS-yellow to looped/cyclic peptides of protein N of SARS-CoV Urbani [1]: 0.4 | Binding of a rabbit serum to linear peptides of protein N of SARS-CoV Urbani (Rabbit serum linear peptides) [2]: 0.1 | Binding of a rabbit serum to looped/cyclic peptides of protein N of SARS-CoV Urbani (Rabbit serum looped peptides) [2]: 0.2 | Binding of antibody 03-018 to linear peptides of the N protein of SARS-CoV Urbani [3]: 0.1 | Binding of antibody 03-018 to looped/cyclic peptides of the N protein of SARS-CoV Urbani [3]: 0.2 | Binding of Control Serum Blood-Bank to Looped peptides [4]: 0.6 | Binding of Control serum Blood-bank to linear peptides [4]: 0.7 | Binding of Control serum LUMC to linear peptides [4]: 0.7 | Binding of Control serum LUMC to looped peptides [4]: 0.6

NKHIDAYKTFPPTEP
Binding of serum 1a to linear peptides of protein N of SARS-CoV Urbani [1]: 0.2 | Binding of serum 1a to looped/cyclic peptides of protein N of SARS-CoV Urbani [1]: 0.3 | Binding of serum 1b to linear peptides of protein N of SARS-CoV Urbani [1]: 0.1 | Binding of serum 1b to looped/cyclic peptides of protein N of SARS-CoV Urbani [1]: 0.1 | Binding of serum 2 to linear peptides of protein N of SARS-CoV Urbani [1]: 0.1 | Binding of serum 2 to looped/cyclic peptides of protein N of SARS-CoV Urbani [1]: 0.2 | Binding of serum 6 to linear peptides of protein N of SARS-CoV Urbani [1]: 0.2 | Binding of serum 6 to looped/cyclic peptides of protein N of SARS-CoV Urbani [1]: 0.1 | Binding of serum 37 to linear peptides of protein N of SARS-CoV Urbani [1]: 0.6 | Binding of serum 37 to looped/cyclic peptides of protein N of SARS-CoV Urbani [1]: 0.4 | Binding of serum 62 to linear peptides of protein N of SARS-CoV Urbani [1]: 0.5 | Binding of serum 62 to looped/cyclic peptides of protein N of SARS-CoV Urbani [1]: 0.3 | Binding of serum London to linear peptides of protein N of SARS-CoV Urbani [1]: 0.5 | Binding of serum London to looped/cyclic peptides of protein N of SARS-CoV Urbani [1]: 0.3 | Binding of serum SARS-green to linear peptides of protein N of SARS-CoV Urbani [1]: 0.3 | Binding of serum SARS-green to looped/cyclic peptides of protein N of SARS-CoV Urbani [1]: 0.3 | Binding of serum SARS-yellow to linear peptides of protein N of SARS-CoV Urbani [1]: 0.6 | Binding of serum SARS-yellow to looped/cyclic peptides of protein N of SARS-CoV Urbani [1]: 0.2 | Binding of a rabbit serum to linear peptides of protein N of SARS-CoV Urbani (Rabbit serum linear peptides) [2]: 0.0 | Binding of a rabbit serum to looped/cyclic peptides of protein N of SARS-CoV Urbani (Rabbit serum looped peptides) [2]: 0.3 | Binding of antibody 03-018 to linear peptides of the N protein of SARS-CoV Urbani [3]: 0.1 | Binding of antibody 03-018 to looped/cyclic peptides of the N protein of SARS-CoV Urbani [3]: 0.2 | Control Serum Blood-Bank Looped peptides [4]: 0.5 | Control serum Blood-bank linear peptides [4]: 0.6 | Control serum LUMC linear peptides [4]: 0.5 | Control serum LUMC looped peptides [4]: 0.4

NQLESKVSGKGQQQQ
Binding of serum 1a to linear peptide (PEPSCAN-ELISA) [1]: 0.3 | Binding of serum 1a to looped/cyclic peptides of protein N of SARS-CoV Urbani [1]: 0.4 | Binding of serum 1b to linear peptide (PEPSCAN-ELISA) [1]: 0.2 | Binding of serum 1b to looped/cyclic peptides of protein N of SARS-CoV Urbani [1]: 0.2 | Binding of serum 2 to linear peptide (PEPSCAN-ELISA) [1]: 0.3 | Binding of serum 2 to looped/cyclic peptides of protein N of SARS-CoV Urbani [1]: 0.5 | Binding of serum 6 to linear peptide (PEPSCAN-ELISA) [1]: 0.2 | Binding of serum 6 to looped/cyclic peptides of protein N of SARS-CoV Urbani [1]: 0.3 | Binding of serum 37 to linear peptide (PEPSCAN-ELISA) [1]: 0.7 | Binding of serum 37 to looped/cyclic peptides of protein N of SARS-CoV Urbani [1]: 0.6 | Binding of serum 62 to linear peptide (PEPSCAN-ELISA) [1]: 0.8 | Binding of serum 62 to looped/cyclic peptides of protein N of SARS-CoV Urbani [1]: 0.5 | Binding of serum London to linear peptide (PEPSCAN-ELISA) [1]: 0.6 | Binding of serum London to looped/cyclic peptides of protein N of SARS-CoV Urbani [1]: 0.5 | Binding of serum SARS-green to linear peptide (PEPSCAN-ELISA) [1]: 0.5 | Binding of serum SARS-green to looped/cyclic peptides of protein N of SARS-CoV Urbani [1]: 0.3 | Binding of serum SARS-yellow to linear peptide (PEPSCAN-ELISA) [1]: 0.7 | Binding of serum SARS-yellow to looped/cyclic peptides of protein N of SARS-CoV Urbani [1]: 0.6 | Binding of a rabbit serum to linear peptides of protein N of SARS-CoV Urbani (Rabbit serum linear peptides) [2]: 0.2 | Binding of a rabbit serum to looped/cyclic peptides of protein N of SARS-CoV Urbani (Rabbit serum looped peptides) [2]: 0.5 | Binding of antibody 03-018 to linear peptides of the N protein of SARS-CoV Urbani [3]: 0.1 | Binding of antibody 03-018 to looped/cyclic peptides of the N protein of SARS-CoV Urbani [3]: 0.3 | Binding of Control Serum Blood-Bank to Looped peptides [4]: 0.7 | Binding of Control serum Blood-bank to linear peptides [4]: 0.8 | Binding of Control serum LUMC to linear peptides [4]: 0.9 | Binding of Control serum LUMC to looped peptides [4]: 0.7

NQNGGRNGARPKQRR
Binding of serum 1a to linear peptides of protein N of SARS-CoV Urbani [1]: 0.2 | Binding of serum 1a to looped/cyclic peptides of protein N of SARS-CoV Urbani [1]: 0.2 | Binding of serum 1b to linear peptides of protein N of SARS-CoV Urbani [1]: 0.1 | Binding of serum 1b to looped/cyclic peptides of protein N of SARS-CoV Urbani [1]: 0.1 | Binding of serum 2 to linear peptides of protein N of SARS-CoV Urbani [1]: 0.3 | Binding of serum 2 to looped/cyclic peptides of protein N of SARS-CoV Urbani [1]: 0.2 | Binding of serum 6 to linear peptides of protein N of SARS-CoV Urbani [1]: 0.3 | Binding of serum 6 to looped/cyclic peptides of protein N of SARS-CoV Urbani [1]: 0.2 | Binding of serum 37 to linear peptides of protein N of SARS-CoV Urbani [1]: 0.8 | Binding of serum 37 to looped/cyclic peptides of protein N of SARS-CoV Urbani [1]: 0.4 | Binding of serum 62 to linear peptides of protein N of SARS-CoV Urbani [1]: 0.7 | Binding of serum 62 to looped/cyclic peptides of protein N of SARS-CoV Urbani [1]: 0.3 | Binding of serum London to linear peptides of protein N of SARS-CoV Urbani [1]: 0.5 | Binding of serum London to looped/cyclic peptides of protein N of SARS-CoV Urbani [1]: 0.3 | Binding of serum SARS-green to linear peptides of protein N of SARS-CoV Urbani [1]: 0.5 | Binding of serum SARS-green to looped/cyclic peptides of protein N of SARS-CoV Urbani [1]: 0.2 | Binding of serum SARS-yellow to linear peptides of protein N of SARS-CoV Urbani [1]: 0.6 | Binding of serum SARS-yellow to looped/cyclic peptides of protein N of SARS-CoV Urbani [1]: 0.3 | Binding of a rabbit serum to linear peptides of protein N of SARS-CoV Urbani (Rabbit serum linear peptides) [2]: 0.5 | Binding of a rabbit serum to looped/cyclic peptides of protein N of SARS-CoV Urbani (Rabbit serum looped peptides) [2]: 1.1 | Binding of antibody 03-018 to linear peptides of the N protein of SARS-CoV Urbani [3]: 0.2 | Binding of antibody 03-018 to looped/cyclic peptides of the N protein of SARS-CoV Urbani [3]: 0.2 | Binding of Control Serum Blood-Bank to Looped peptides [4]: 0.6 | Binding of Control serum Blood-bank to linear peptides [4]: 0.7 | Binding of Control serum LUMC to linear peptides [4]: 0.8 | Binding of Control serum LUMC to looped peptides [4]: 0.5
